The values below come from US5360909A, “Phenoxyacetic acid compounds and medical preparations containing them” (Terumo Kabushiki Kaisha, priority 1992, dated 1994).

One assay relates to thromboxane A2 (TXA2). The assay can be described thus: Antagonistic effect to TXA2: contraction of isolated guinea pig tracheal strips. Format: cell-based, Hartley male guinea pigs. The following applies: Cavia porcellus, in vitro, TXA2 10^-7 M, Tyrode solution 37° C. On the procedure:
(§1) The in vitro IC50 value of the antagonistic effect of the compounds of the present invention to TXA2 and LTD4 was obtained, using the following test system. Tracheal strips isolated from Hartley male guinea pigs (weight: 300 to 500 g) were suspended under a tension of 0.3 g in a Tyrode solution at 37° C. in an organ bath, to which a mixed gas of oxygen (95%)-carbon dioxide (5%) was introduced. After letting the above stabilize for about one hour, TXA2 (produced by Cayman Co.) or LTD4 (produced by Wako Pure Chemicals CO.) was added to the organ bath in a concentration-of 10^-7 M and 10^-8 M respectively, whereupon the contraction of the sections was measured as a standard. The strips were treated with various amounts of the compounds of Examples 1-8, whereupon the contraction of the tracheal preparations upon dosing with TXA2 or LTDS4 was again measured. From the values thus measured, the IC50 (Inhibition concentration) of the compound added was calculated. The results are shown in Table 1 below; the smaller the amount of the compound, the stronger its effectiveness.

Another assay relates to leukotriene D4 (LTD4). The assay can be described thus: Antagonistic effect to LTD4: contraction of isolated guinea pig tracheal strips. The format is cell-based, Hartley male guinea pigs. The following applies: Cavia porcellus, in vitro, LTD4 10^-8 M, Tyrode solution 37° C. On the procedure: as §1

As a reminder, the IC50 is the concentration that gives 50% inhibition. A higher IC50 goes with weaker potency. Take `O=C(O)COc1ccc(CCNS(=O)(=O)c2ccc(Cl)cc2)cc1NC(=O)c1cccc(OCc2ccc3ccccc3n2)c1` [Example 1, 4-[2-(4-chlorobenzenesulfonamido)ethyl]-2-[3-(2-quinolinemethoxy)benzoylamino]phenoxyacetic acid]: the results for the IC50 in the assay on thromboxane A2 (TXA2) and with leukotriene D4 (LTD4) were 4.2 nM and 65 nM, respectively.
As for `O=C(O)COc1ccc(CCNS(=O)(=O)c2ccccc2)cc1NC(=O)c1cccc(OCc2ccc3ccccc3n2)c1` [Example 2, 4-[2-(benzenesulfonylamino)ethyl]-2-[3-(2-quinolinemethoxy)benzoylamino]phenoxyacetic acid], the IC50 in the assay with thromboxane A2 (TXA2) came to 3.4 nM; with leukotriene D4 (LTD4), 38 nM.
The corresponding values for `O=C(O)COc1ccc(CCNS(=O)(=O)c2ccc(Cl)cc2)c(OCc2ccc3ccccc3n2)c1` [Example 3, 4-[2-(4-chlorobenzenesulfonamido)ethyl]-3-(2-quinolinemethoxy)phenoxyacetic acid] are 3.5 nM and 8300 nM.
For the molecule `O=C(O)COc1ccc(CCNS(=O)(=O)c2ccc(Cl)cc2)c(OCc2cccc(OCc3ccc4ccccc4n3)c2)c1` [Example 4, 4-[2-(4-chlorobenzenesulfonamido)ethyl]-3-(3-(2-quinolinemethoxy)benzyloxy]phenoxyacetic acid], the figures for the IC50 in the assay with thromboxane A2 (TXA2) and in the assay on leukotriene D4 (LTD4) were 590 nM and 210 nM, respectively.
Consider `O=C(O)COc1ccc(CCNS(=O)(=O)c2ccc(Cl)cc2)cc1NC(=S)Nc1cccc(OCc2ccc3ccccc3n2)c1` [Example 5, 4-[2-(4-chlorobenzenesulfonamido)ethyl]-2-{3-[3-(2-quinolinemethoxy)phenyl]thioureido}phenoxyacetic acid], for which the IC50 with thromboxane A2 (TXA2) was determined as 25 nM; in the assay on leukotriene D4 (LTD4) it was 72 nM.
The corresponding values for `CCCc1c(OCCCC(=O)Nc2cc(CCNS(=O)(=O)c3ccc(Cl)cc3)ccc2OCC(=O)O)ccc(C(C)=O)c1O` [Example 6, 4-[2-(4-chlorobenzenesulfonamido)ethyl]-2-[(4-acetyl-3-hydroxy-2-propyl)phenoxy-4-butamido]phenoxyacetic acid] are 8.2 nM and 160 nM.
For `CCCc1c(OCCCCC(=O)Nc2cc(CCNS(=O)(=O)c3ccc(Cl)cc3)ccc2OCC(=O)O)ccc(C(C)=O)c1O` [Example 7, 4-[2-(4-chlorobenzenesulfonamido)ethyl]-2-[(4-acetyl-3-hydroxy-2-propyl)phenoxy-5-pentamido]phenoxyacetic acid], the IC50 with thromboxane A2 (TXA2) worked out at 19 nM; with leukotriene D4 (LTD4), 76 nM.
The matching figures for `CCCc1c(OCCCCCC(=O)Nc2cc(CCNS(=O)(=O)c3ccc(Cl)cc3)ccc2OCC(=O)O)ccc(C(C)=O)c1O` [Example 8, 4-[2-(4-chlorobenzenesulfonamido)ethyl]-2-[(4-acetyl-3-hydroxy-2-propyl)phenoxy-6-hexamido]phenoxyacetic acid]: 40 nM and 260 nM.
